Measured values reported in publication PMC10138657, “D-Xylose Blocks the Broad Negative Regulation of XylR on Lipid Metabolism and Affects Multiple Physiological Characteristics in Mycobacteria” (International Journal of Molecular Sciences, 2023).

Molecular target: T1, XylR (Mycolicibacterium smegmatis, UniProt A0R508)
T1 construct: gene MSMEG_6022
T1 sequence (A0R508 1-393): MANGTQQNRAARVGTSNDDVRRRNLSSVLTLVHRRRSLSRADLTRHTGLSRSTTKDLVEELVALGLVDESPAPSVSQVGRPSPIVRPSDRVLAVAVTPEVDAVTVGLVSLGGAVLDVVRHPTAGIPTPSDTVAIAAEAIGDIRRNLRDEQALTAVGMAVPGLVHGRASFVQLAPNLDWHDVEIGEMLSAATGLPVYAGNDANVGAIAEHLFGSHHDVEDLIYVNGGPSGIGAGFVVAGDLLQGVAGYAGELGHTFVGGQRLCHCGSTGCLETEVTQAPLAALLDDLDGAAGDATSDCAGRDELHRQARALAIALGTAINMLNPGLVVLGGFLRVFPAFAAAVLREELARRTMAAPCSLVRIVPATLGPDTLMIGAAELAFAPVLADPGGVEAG
Experiment: isothermal titration calorimetry
Type: binding
Conditions: 20 mM Tris-base, 100 mM NaCl, 5 mM MgCl2, pH 7.5; 35 μM XylR; independent-site model, n = 1.09 ± 0.04

Kd: 4.72 ± 0.6 µM
Compound: OC1OC[C@@H](O)[C@H](O)[C@H]1O (stereo partly drawn) [D-xylose]
